Test system: cataracts in rats
Experiment: Prevention or retardation of cataracts in galactose-fed rats
Type: in vivo, rat
Conditions: 30% galactose diet, A,C,E 0.0025%, B,D 0.01%
Method: The compounds to be tested were:
Test compound/diet mixtures were formulated as follows: […]
Similarly, the 0.01% level was designed to provide a drug concentration of 20 mg per kilogram per day.
All animals were fed the Purina Laboratory Chow and water, ad libitum for a two day acclimatization period. The indicated test compound/diet mixture then was introduced to all animals on Study Day 1 and the animals were maintained on this diet throughout thirty days of the study.
Sufficient amounts of test compound/diet mixture were maintained in the food hoppers to allow the animals to eat ad libitum. All aliquots of test compound/diet mixture added to the food hoopers were weighed and the weights, as well as day of addition, recorded.
Twelve animals were assigned to each treatment with each compound at the indicated percentage by total weight of feed. All eyes were examined with a handheld ophthalmoscope and/or penlight.

SMILES: O=C1NC(=O)C2(CCOc3ccc(F)cc32)N1 (centres unmarked) [E]
- Number of Eyes Observed, + (vacuole) (Study Day 14): 0 eyes
- Number of Eyes Observed, - (Normal) (Study Day 14): 21 eyes
- Number of Eyes Observed, N (nuclear cataract) (Study Day 14): 0 eyes
- Number of Eyes Observed, S (snowflake) (Study Day 14): 0 eyes
- Number of Eyes Observed, ± (Study Day 14): 3 eyes
- % of Total Eyes, + (vacuole) (Study Day 16): 0%
- % of Total Eyes, - (Normal) (Study Day 16): 83.3%
- % of Total Eyes, N (nuclear cataract) (Study Day 16): 0%
- % of Total Eyes, S (snowflake) (Study Day 16): 0%
- Number of Eyes Observed, + (vacuole) (Study Day 16): 0 eyes
- Number of Eyes Observed, - (Normal) (Study Day 16): 20 eyes
- Number of Eyes Observed, N (nuclear cataract) (Study Day 16): 0 eyes
- Number of Eyes Observed, S (snowflake) (Study Day 16): 0 eyes
- Number of Eyes Observed, ± (Study Day 16): 4 eyes
- % of Total Eyes, + (vacuole) (Study Day 18): 0%
- % of Total Eyes, - (Normal) (Study Day 18): 58.4%
- % of Total Eyes, N (nuclear cataract) (Study Day 18): 0%
- % of Total Eyes, S (snowflake) (Study Day 18): 0%
- Number of Eyes Observed, + (vacuole) (Study Day 18): 0 eyes
- Number of Eyes Observed, - (Normal) (Study Day 18): 14 eyes
- Number of Eyes Observed, N (nuclear cataract) (Study Day 18): 0 eyes
- Number of Eyes Observed, S (snowflake) (Study Day 18): 0 eyes
- Number of Eyes Observed, ± (Study Day 18): 10 eyes
- % of Total Eyes, + (vacuole) (Study Day 20): 4.2%
- % of Total Eyes, - (Normal) (Study Day 20): 12.5%
- % of Total Eyes, N (nuclear cataract) (Study Day 20): 0%
- % of Total Eyes, S (snowflake) (Study Day 20): 41.6%
- Number of Eyes Observed, + (vacuole) (Study Day 20): 1 eyes
- Number of Eyes Observed, - (Normal) (Study Day 20): 3 eyes
- Number of Eyes Observed, N (nuclear cataract) (Study Day 20): 0 eyes
- Number of Eyes Observed, S (snowflake) (Study Day 20): 10 eyes
- Number of Eyes Observed, ± (Study Day 20): 10 eyes
- % of Total Eyes, + (vacuole) (Study Day 22): 8.3%
- % of Total Eyes, - (Normal) (Study Day 22): 0%
- % of Total Eyes, N (nuclear cataract) (Study Day 22): 0%
- % of Total Eyes, S (snowflake) (Study Day 22): 66.7%
- Number of Eyes Observed, + (vacuole) (Study Day 22): 2 eyes
- Number of Eyes Observed, - (Normal) (Study Day 22): 0 eyes
- Number of Eyes Observed, N (nuclear cataract) (Study Day 22): 0 eyes
- Number of Eyes Observed, S (snowflake) (Study Day 22): 16 eyes
- Number of Eyes Observed, ± (Study Day 22): 6 eyes
- % of Total Eyes, + (vacuole) (Study Day 24): 12.5%
- % of Total Eyes, - (Normal) (Study Day 24): 0%
- % of Total Eyes, N (nuclear cataract) (Study Day 24): 0%
- % of Total Eyes, S (snowflake) (Study Day 24): 83.3%
- Number of Eyes Observed, + (vacuole) (Study Day 24): 3 eyes
- Number of Eyes Observed, - (Normal) (Study Day 24): 0 eyes
- Number of Eyes Observed, N (nuclear cataract) (Study Day 24): 0 eyes
- Number of Eyes Observed, S (snowflake) (Study Day 24): 20 eyes
- Number of Eyes Observed, ± (Study Day 24): 1 eyes
- % of Total Eyes, + (vacuole) (Study Day 26): 16.7%
- % of Total Eyes, - (Normal) (Study Day 26): 0%
- % of Total Eyes, N (nuclear cataract) (Study Day 26): 0%
- % of Total Eyes, S (snowflake) (Study Day 26): 83.3%
- Number of Eyes Observed, + (vacuole) (Study Day 26): 4 eyes
- Number of Eyes Observed, - (Normal) (Study Day 26): 0 eyes
- Number of Eyes Observed, N (nuclear cataract) (Study Day 26): 0 eyes
- Number of Eyes Observed, S (snowflake) (Study Day 26): 20 eyes
- Number of Eyes Observed, ± (Study Day 26): 0 eyes
- % of Total Eyes, + (vacuole) (Study Day 28): 8.3%
- % of Total Eyes, - (Normal) (Study Day 28): 0%
- % of Total Eyes, N (nuclear cataract) (Study Day 28): 0%
- % of Total Eyes, S (snowflake) (Study Day 28): 91.7%
- Number of Eyes Observed, + (vacuole) (Study Day 28): 2 eyes
- Number of Eyes Observed, - (Normal) (Study Day 28): 0 eyes
- Number of Eyes Observed, N (nuclear cataract) (Study Day 28): 0 eyes
- Number of Eyes Observed, S (snowflake) (Study Day 28): 22 eyes
- Number of Eyes Observed, ± (Study Day 28): 0 eyes
- % of Total Eyes, + (vacuole) (Study Day 30): 4.2%
- % of Total Eyes, - (Normal) (Study Day 30): 0%
- % of Total Eyes, N (nuclear cataract) (Study Day 30): 0%
- % of Total Eyes, S (snowflake) (Study Day 30): 95.8%
- Number of Eyes Observed, + (vacuole) (Study Day 30): 1 eyes
- Number of Eyes Observed, - (Normal) (Study Day 30): 0 eyes
- Number of Eyes Observed, N (nuclear cataract) (Study Day 30): 0 eyes
- Number of Eyes Observed, S (snowflake) (Study Day 30): 23 eyes
- Number of Eyes Observed, ± (Study Day 30): 0 eyes
